Like-named read-outs stand apart in the source and are kept apart here.
What was measured:
[1] = test system: U937 human hematological cancer cells; experiment: Proliferation and survival of U937 cells, PI staining / FACS, 72 hours; type: cell-based
Experimental: U937 human hematological cancer cells were cultured in RPMI supplemented with 10% FCS. […] Azacitidine (AZA) was added to the cell cultures at 5 different concentrations: 0, 100, 250, 1000, 5000 nM. […] All groups were analyzed in triplicates. […] The percentage of inhibition was calculated.

Molt-4 cells = experiment: Activity of Asp-Cytarabine/BST-236 on Molt-4 cells, 48 hr, 10% FCS (Table 5); type: cell-based, human
[2] = PK analysis from Phase I/II studies after infusion; type: in vivo
Excerpt: Accordingly, synergistic interactions may be observed within […] administration of BST-236.

U937 cells = experiment: Activity of BST-236 on U937 cells, 48 hr, 10% FCS (Table 3); type: cell-based, human
[3] = test system: Molt-4 human leukemia cell line; experiment: Molt-4 cell proliferation, MTT assay, 72 hr; type: cell-based
Experimental: Molt-4 human leukemia cell line was obtained from ATCC. The cells were grown in RPMI medium containing 10% FBS and 1% glutamine Cells were seeded in 96-well plates, 50,000 cells/ml, 0.2 ml per well. Test substances were diluted in PBS and added in final concentrations of 0.1 nM to 10 μM, in a volume of 20 μl. The study was conducted in triplicates. PBS was used as a control. Plates were incubated for 72 hr at 37° C. with 5% CO2. At the end of the treatment period, a MTT assay using the MTT reagent [3-(4,5-dimethylthiazol-2-yl)-2,5-diphenyltetrazolium bromide] was performed. MTT was added to each well at a concentration of 5 mg/ml in a volume of 0.02 ml. Plates were incubated at 37° C. for 3 hours. The plates were centrifuged at 3500 rpm for 5 minutes and the supernatant was aspirated. The pellets which contained MTT crystals were each dissolved in 0.2 ml DMSO. Absorbance was determined using ELISA reader at a wavelength of 570 nm.

U937 leukemia cells = experiment: Animal model of leukemia: NSG mice injected IV with U937 cells; type: in vivo, NOD scid gamma (NSG) mice; conditions: for Spleen size / weight compared to the control mice: s.c. daily, FIG. 4
Experimental: The effect of BST-236 in combination with azacytidine on the survival of U937 leukemia cells in vivo was next examined NOD scid gamma (NSG) mice were irradiated with 200 rad, 24 hours before injection with U937 cells. On Day 0, mice (4-5 animals per group), were injected intravenously (IV) with 7×10^6 U937 cells in a total volume of 200 μL PBS. On Days 16-22 (7 days, first study) or 13-18 (6 days, second study), mice were daily injected subcutaneously (s.c.) with BST-236 (5 mg/mouse; ˜250 mg/kg), azacytidine (designated AZA; 6 mg/kg), or BST-236 (5 mg/mouse; ˜250 mg/kg) and AZA (6 mg/kg). Twenty-four hours after the last injection, mice were sacrificed, and spleen, blood, and bone marrow were analyzed for mouse and human CD45^+ cells using fluorescence-activated cell sorting (FACS).
Given that finding, experiments will be performed using even lower doses of BST-236 to evaluate synergistic activity with, e.g., AZA. It is, for example, expected that 20 mg/kg BST-236 will be efficacious. Accordingly, in a particular embodiment, NSG mice will be dosed with 20 mg/kg BST-236 alone, 6 mg/kg AZA alone, or a combination of 20 mg/kg BST-236 and 6 mg/kg AZA to investigate synergistic activity with this dosing regimen. It is understood that synergistic activity may also be observed at lower doses of AZA in combination with 20 mg/kg BST-236.

[4] = BST-236 5 mg/mouse, AZA 6 mg/kg

NC(CC(=O)Nc1ccn([C@@H]2O[C@H](CO)C(O)C2O)c(=O)n1)C(=O)O (stereo partly shown) [Asp-Cytarabine]
% inhibition (growth inhibition of U937 cells) ([1]; BST236 250 nM alone): 19.1%
Activity on Molt-4 cells (count) (Molt-4 cells; 1 nM, 48 hr, 10% FCS): 18778.00
Activity on Molt-4 cells (count) (Molt-4 cells; 10 nM, 48 hr, 10% FCS): 17759.00
Activity on Molt-4 cells (count) (Molt-4 cells; 50 nM, 48 hr, 10% FCS): 14258.67
Activity on Molt-4 cells (count) (Molt-4 cells; 100 nM, 48 hr, 10% FCS): 12006.67
Activity on Molt-4 cells (count) (Molt-4 cells; 250 nM, 48 hr, 10% FCS): 9572.00
Activity on Molt-4 cells (count) (Molt-4 cells; 1000 nM, 48 hr, 10% FCS): 3156.33
Activity on Molt-4 cells (count) (Molt-4 cells; 5000 nM, 48 hr, 10% FCS): 2037.33
inhibition at 0.001 µM (Molt-4 cells; Homo sapiens, MOLT-4, 1 nM, 48 hr, 10% FCS, read-out: Activity on Molt-4 cells (inhibition relative to 0)): 1.88%
inhibition at 0.01 µM (Molt-4 cells; Homo sapiens, MOLT-4, 10 nM Asp-Cytarabine, read-out: inhibition of Molt-4 cells): < 10%
inhibition at 0.01 µM (Molt-4 cells; Homo sapiens, MOLT-4, 10 nM, 48 hr, 10% FCS, read-out: Activity on Molt-4 cells (inhibition relative to 0)): 7.21%
inhibition at 0.05 µM (Molt-4 cells; Homo sapiens, MOLT-4, 50 nM, 48 hr, 10% FCS, read-out: Activity on Molt-4 cells (inhibition relative to 0)): 25.5%
inhibition at 0.1 µM (Molt-4 cells; Homo sapiens, MOLT-4, 100 nM, 48 hr, 10% FCS, read-out: Activity on Molt-4 cells (inhibition relative to 0)): 37.3%
inhibition at 0.25 µM (Molt-4 cells; Homo sapiens, MOLT-4, 250 nM, 48 hr, 10% FCS, read-out: Activity on Molt-4 cells (inhibition relative to 0)): 50%
inhibition at 1 µM (Molt-4 cells; Homo sapiens, MOLT-4, 1000 nM, 48 hr, 10% FCS, read-out: Activity on Molt-4 cells (inhibition relative to 0)): 83.5%
inhibition at 5 µM (Molt-4 cells; Homo sapiens, MOLT-4, 5000 nM, 48 hr, 10% FCS, read-out: Activity on Molt-4 cells (inhibition relative to 0)): 89.3%
Concentration decline following infusion cessation ([2]; Phase I/II studies): rapidly declined in an apparent biphasic manner
Concentration relative to the peak ([2]; at 6-10 hours from the completion of the infusion): ≤ 5 % of the peak
Activity on U937 cells (count) (U937 cells; 1 nM, 48 hr, 10% FCS): 16958
Activity on U937 cells (count) (U937 cells; 10 nM, 48 hr, 10% FCS): 16994
Activity on U937 cells (count) (U937 cells; 50 nM, 48 hr, 10% FCS): 15769.67
Activity on U937 cells (count) (U937 cells; 100 nM, 48 hr, 10% FCS): 15228.33333
Activity on U937 cells (count) (U937 cells; 250 nM, 48 hr, 10% FCS): 14819.67
Activity on U937 cells (count) (U937 cells; 1000 nM, 48 hr, 10% FCS): 6185.667
Activity on U937 cells (count) (U937 cells; 5000 nM, 48 hr, 10% FCS): 2116
inhibition at 0.001 µM (U937 cells; Homo sapiens, U-937, 1 nM, 48 hr, 10% FCS, read-out: Activity on U937 cells (inhibition relative to 0)): -2.27%
inhibition at 0.01 µM (U937 cells; Homo sapiens, U-937, 10 nM, 48 hr, 10% FCS, read-out: Activity on U937 cells (inhibition relative to 0)): -2.49%
inhibition at 0.05 µM (U937 cells; Homo sapiens, U-937, 50 nM, 48 hr, 10% FCS, read-out: Activity on U937 cells (inhibition relative to 0)): 4.9%
inhibition at 0.1 µM (U937 cells; Homo sapiens, U-937, 100 nM, 48 hr, 10% FCS, read-out: Activity on U937 cells (inhibition relative to 0)): 8.16%
inhibition at 0.25 µM (U937 cells; Homo sapiens, U-937, 250 nM Asp-Cytarabine administered alone, read-out: inhibition of U937 cells): < 20%
inhibition at 0.25 µM (U937 cells; Homo sapiens, U-937, 250 nM, 48 hr, 10% FCS, read-out: Activity on U937 cells (inhibition relative to 0)): 10.6%
inhibition at 1 µM (U937 cells; Homo sapiens, U-937, 1000 nM, 48 hr, 10% FCS, read-out: Activity on U937 cells (inhibition relative to 0)): 62.7%
inhibition at 5 µM (U937 cells; Homo sapiens, U-937, 5000 nM, 48 hr, 10% FCS, read-out: Activity on U937 cells (inhibition relative to 0)): 87.2%
IC50 [3]: 47 nM
Spleen size / weight compared to the control mice (U937 leukemia cells; [4]): reduced spleen size
Animals that survived until the scheduled sacrifice (U937 leukemia cells; first study, s.c. daily Days 16-22, sacrifice on Day 23, BST-236 5 mg/mouse, AZA 6 mg/kg): 4/4

Nc1ncn([C@@H]2O[C@H](CO)[C@@H](O)[C@H]2O)c(=O)n1 [Azacitidine]
% inhibition (growth inhibition of U937 cells) ([1]; AZA 100 nM alone): 1.68%
% inhibition (growth inhibition of U937 cells) ([1]; AZA 250 nM alone): −3.60%
% inhibition (growth inhibition of U937 cells) ([1]; AZA 1000 nM alone): 0.60%
% inhibition (growth inhibition of U937 cells) ([1]; AZA 5000 nM alone): 4.30%
IC50 [3]: 2110 nM
Spleen size / weight compared to the control mice (U937 leukemia cells; [4]): reduced spleen size
Animals that died before the scheduled sacrifice (U937 leukemia cells; first study, AZA 6 mg/kg s.c. daily Days 16-22, sacrifice on Day 23): 1/4
